Assays:
[1] = system: Ca-Ski; assay: Antiproliferative activity against human Ca-Ski cells assessed as cell viability incubated for 48 hrs by MTT assay; type: functional, cell-based
[2] = Cytotoxicity against human HEK293T cells assessed as cell viability incubated for 48 hrs by MTT assay; type: toxicity, cell-based, HEK-293T
[3] = Cytotoxicity against human L02 cells assessed as cell viability incubated for 48 hrs by MTT assay; type: toxicity, cell-based
[4] = system: SiHa; assay: Antiproliferative activity against human SiHa cells assessed as cell viability incubated for 48 hrs by MTT assay; type: functional, cell-based
[5] = system: HeLa; assay: Antiproliferative activity against human HeLa cells assessed as cell viability incubated for 48 hrs by MTT assay; type: functional, cell-based

SMILES | IC50 [5] [µM] | IC50 [1] [µM] | IC50 at 48 h [2] [µM] | IC50 at 48 h [3] [µM] | IC50 [4] [µM]
COc1cc(-c2nc3cc(N4CCOCC4)c(C#Cc4ccccc4)cc3[nH]2)cc(OC)c1OC | 8.07 | 6.45 | 3.73 | 9.09 | 7.07
COc1ccc(C#Cc2cc3[nH]c(-c4cc(OC)c(OC)c(OC)c4)nc3cc2N2CCN(C)CC2)cc1 | 2.07 | 1.39 | 0.41 | 2.29 | 3.13
COc1cc(OC)c(-c2nc3cc(N4CCOCC4)c(C#Cc4ccc(C(F)(F)F)cc4)cc3[nH]2)cc1OC | 29.3 | > 100 | > 100 | > 100 | > 100
COc1cc(OC)c(-c2nc3cc(N4CCOCC4)c(C#Cc4ccc(Cl)cc4)cc3[nH]2)cc1OC | 16.7 | > 100 | 36.1 | > 100 | > 100
COc1cc(-c2nc3cc(N4CCN(C)CC4)c(C#Cc4ccccc4Cl)cc3[nH]2)cc(OC)c1OC | 1.73 | 3.15 | 0.8 | 1.29 | 1.4
COc1cc(-c2nc3cc(N4CCN(C)CC4)c(C#Cc4ccc(C(F)(F)F)cc4)cc3[nH]2)cc(OC)c1OC | 3.13 | 1.38 | 1.41 | 2.3 | 6.54

Now from value to molecule, other results behind:

IC50 [5] [µM] | SMILES | IC50 [1] [µM] | IC50 at 48 h [2] [µM] | IC50 at 48 h [3] [µM] | IC50 [4] [µM]
10.4 | COc1cc(-c2nc3cc(N4CCOCC4)c(C#Cc4ccccc4Cl)cc3[nH]2)cc(OC)c1OC | 13.5 | 5.37 | > 100 | 7.81
4.21 | COc1cc(-c2nc3cc(N4CCOCC4)c(/C=C/C(=O)NC(C)(C)C)cc3[nH]2)cc(OC)c1OC | 16 | 11.7 | 9.92 | 17
19.3 | COc1cc(OC)c(-c2nc3cc(N4CCOCC4)c(C#Cc4ccccc4)cc3[nH]2)cc1OC | 19.5 | 13.2 | 34.1 | 25.1
1.61 | COc1cc(OC)c(-c2nc3cc(N4CCN(C)CC4)c(C#Cc4ccc(Cl)cc4)cc3[nH]2)cc1OC | > 100 | 1.64 | 1.38 | 3.03
14.5 | COc1cc(-c2nc3cc(N4CCOCC4)c(/C=C/C(=O)N(C)C)cc3[nH]2)cc(OC)c1OC | 48.5 | 2.53 | > 100 | > 100

Source: ChEMBL document CHEMBL5500356, “Design, synthesis, and biological evaluation of novel benzimidazole derivatives as anti-cervical cancer agents through PI3K/Akt/mTOR pathway and tubulin inhibition” (Eur J Med Chem, 2024)
